Assay results published in US8592460B2, “Amino-pyridine derivatives as S1P1 /EDG1 receptor agonists” (Actelion Pharmaceuticals Ltd., priority 2007, dated 2013).

System: circulating lymphocytes
Experiment: Assessment of in vivo efficacy: circulating lymphocytes after oral administration
Set-up: species or system rat
Conditions: 6 h after oral administration of 10 mg/kg to normotensive male Wistar rats, compared to vehicle-treated group; mean ± SEM
Protocol: The efficacy of the compounds of formula (I) is assessed by measuring the circulating lymphocytes after oral administration of 3 to 30 mg/kg of a compound of formula (I) to normotensive male Wistar rats. The animals are housed in climate-controlled conditions with a 12 h-light/dark cycle, and have free access to normal rat chow and drinking water. Blood is collected before and 3, 6 and 24 h after drug administration. Full blood is subjected to hematology using Advia Hematology system (Bayer Diagnostics, Zurich, Switzerland).
All data are presented as mean±SEM. Statistical analyses are performed by analysis of variance (ANOVA) using Statistica (StatSoft) and the Student-Newman-Keuls procedure for multiple comparisons. The null hypothesis is rejected when p<0.05.
Lymphocyte counts 6 h after oral administration have been measured for 39 of the 258 exemplified compounds and are in the range of −82% to −48% with an average of −65%.

| SMILES | Lymphocyte counts |
| --- | --- |
| CCN(CC)c1cc(-c2nc(-c3cc(C)c(OC[C@@H](O)CO)c(C)c3)no2)cc(C)n1 [Example 11, (S)-3-{4-[5-(2-diethylamino-6-methyl-pyridin-4-yl)-[1,2,4]oxadiazol-3-yl]-2,6-dimethyl-phenoxy}-propane-1,2-diol] | −70 ± 2% |
| CCc1cc(-c2noc(-c3cc(C)nc(N(C)C(C)C)c3)n2)cc(C)c1OC[C@@H](O)CO [Example 24, (S)-3-(2-Ethyl-4-{5-[2-(isopropyl-methyl-amino)-6-methyl-pyridin-4-yl]-[1,2,4]oxa-diazol-3-yl}-6-methyl-phenoxy)-propane-1,2-diol] | −72 ± 1% |

Target: recombinant human S1P1 receptor (Homo sapiens, UniProt P21453)
Experiment: GTPγS assay to determine EC50 values
Assay type: biochemical
Conditions: agonistic activity; 35S-GTPγS binding, membrane preparations of CHO cells expressing recombinant human S1P1 receptor
Protocol: GTPγS binding assays are performed in 96 well microtiter plates (Nunc, 442587) in a final volume of 200 μl, using membrane preparations of CHO cells expressing recombinant human S1P1 receptor. Assay conditions are 20 mM Hepes (Fluka, 54461), 100 mM NaCl (Fluka, 71378), 5 mM MgCl2(Fluka, 63064), 0.1% BSA (Calbiochem, 126609), 1 μM GDP (Sigma, G-7127), 2.5% DMSO (Fluka, 41644), […] ^35S-GTPγS (Amersham Biosciences, SJ1320). The pH is 7.4. Test compounds are dissolved and diluted in 100% DMSO and pre-incubated at room temperature for 30 min in 150 μl of the above assay buffer, in the absence of ^35S-GTPγS. After addition of 50 μl of ^35S-GTPγS, the assay is incubated for 1 h at rt. The assay is terminated by transfer of the reaction mixture to a Multiscreen plate (Millipore, MAHFC1H60) using a cell harvester from Packard Biosciences, and the plates are washed with ice-cold 10 mM Na2HPO4/NaH2PO4 (70%/30%), dried, sealed at the bottom and, after addition of 25 μl MicroScint20 (Packard Biosciences, order#6013621), sealed on the top. Membrane-bound ^35S-GTPγS is measured with a TopCount from Packard Biosciences.
EC50 is the concentration of agonist inducing 50% of the maximal specific ^35S-GTPγS binding. Specific binding is determined by subtracting non-specific binding from maximal binding. Maximal binding is the amount of cpm bound to the Multiscreen plate in the presence of 10 μM of S1P. Non-specific binding is the amount of binding in the absence of an agonist in the assay.

Sequence of recombinant human S1P1 receptor (P21453 whole entry): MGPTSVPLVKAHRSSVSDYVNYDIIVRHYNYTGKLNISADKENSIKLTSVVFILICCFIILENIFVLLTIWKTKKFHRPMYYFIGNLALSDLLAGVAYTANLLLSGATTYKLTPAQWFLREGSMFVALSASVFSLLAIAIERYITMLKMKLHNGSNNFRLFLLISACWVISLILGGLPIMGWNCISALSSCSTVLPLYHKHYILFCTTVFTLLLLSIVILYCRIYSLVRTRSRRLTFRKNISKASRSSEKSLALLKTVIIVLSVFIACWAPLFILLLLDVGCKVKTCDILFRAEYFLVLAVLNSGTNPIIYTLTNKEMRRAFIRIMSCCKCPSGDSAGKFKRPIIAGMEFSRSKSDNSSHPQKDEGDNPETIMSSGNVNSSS

| SMILES | EC50 |
| --- | --- |
| CCc1cc(-c2noc(-c3cc(C)nc(N(CC)CC)c3)n2)cc(C)c1OCCN1CCC(C(=O)O)C1 (racemic) [Example 66, rac-1-(2-{4-[5-(2-Diethylamino-6-methyl-pyridin-4-yl)-[1,2,4]oxadiazol-3-yl]-2-ethyl-6-methyl-phenoxy}-ethyl)-pyrrolidine-3-carboxylic acid] | 6.2 nM |
| Cc1cc(-c2nc(-c3cc(C)c(O)c(C)c3)no2)cc(N(C)C(C)C)n1 [Example 21, 4-{5-[2-(Isopropyl-methyl-amino)-6-methyl-pyridin-4-yl]-[1,2,4]oxadiazol-3-yl}-2,6-dimethyl-phenol] | 3.6 nM |
| Cc1cc(-c2nc(-c3cc(C)c(OC[C@@H](O)CO)c(C)c3)no2)cc(N(C)C(C)C)n1 [Example 22, (S)-3-(4-{5-[2-(Isopropyl-methyl-amino)-6-methyl-pyridin-4-yl]-[1,2,4]oxadiazol-3-yl}-2,6-dimethyl-phenoxy)-propane-1,2-diol] | 0.7 nM |
| CCc1cc(-c2noc(-c3cc(C)nc(N(C)C(C)C)c3)n2)cc(C)c1CCC(=O)NCCC(=O)O [Example 26, 3-[3-(2-Ethyl-4-{5-[2-(isopropyl-methyl-amino)-6-methyl-pyridin-4-yl]-[1,2,4]oxadiazol-3-yl}-6-methyl-phenyl)-propionylamino]-propionic acid] | 2.6 nM |
| CCCc1cc(-c2noc(-c3cc(C)nc(N(C)C(C)C)c3)n2)cc(C)c1OC[C@@H](O)CNC(=O)CO [Example 139, 2-hydroxy-N—[(S)-2-hydroxy-3-(4-{5-[2-(isopropyl-methyl-amino)-6-methyl-pyridin-4-yl]-[1,2,4]oxadiazol-3-yl}-2-methyl-6-propyl-phenoxy)-propyl]-acetamide] | 2 nM |
| Cc1cc(-c2nc(-c3cc(C)c(OC[C@@H](O)CNC(=O)CO)c(Cl)c3)no2)cc(N(C)C(C)C)n1 [Example 146, N—[(S)-3-(2-chloro-4-{5-[2-(isopropyl-methyl-amino)-6-methyl-pyridin-4-yl]-[1,2,4]oxadiazol-3-yl}-6-methyl-phenoxy)-2-hydroxy-propyl]-2-hydroxy-acetamide] | 0.8 nM |
| COc1cc(OC[C@H](O)CNC(=O)CO)ccc1-c1noc(-c2cc(C)nc(N(C)C(C)C)c2)n1 [Example 159, 2-hydroxy-N—[(R)-2-hydroxy-3-(4-{5-[2-(isopropyl-methyl-amino)-6-methyl-pyridin-4-yl]-[1,2,4]oxadiazol-3-yl}-3-methoxy-phenoxy)-propyl]-acetamide] | 5.1 nM |
| CCc1cc(-c2noc(-c3cc(C)nc(NC(C)C)c3)n2)cc(C)c1OC[C@H](O)CO [Example 198, (R)-3-{2-ethyl-4-[5-(2-isopropylamino-6-methyl-pyridin-4-yl)-[1,2,4]oxadiazol-3-yl]-6-methyl-phenoxy}-propane-1,2-diol] | 2.4 nM |
| CCc1cc(-c2noc(-c3cc(C)nc(NC(C)C)c3)n2)cc(C)c1OC[C@@H](O)CNC(=O)CO [Example 203, N—((S)-3-{2-ethyl-4-[5-(2-isopropylamino-6-methyl-pyridin-4-yl)-[1,2,4]oxadiazol-3-yl]-6-methyl-phenoxy}-2-hydroxy-propyl)-2-hydroxy-acetamide] | 0.5 nM |

Next, values leading:

| EC50 | SMILES |
| --- | --- |
| 1.2 nM | CCc1cc(-c2noc(-c3cc(C)nc(N(CC)CC)c3)n2)cc(C)c1OCC(O)CO (racemic) [Example 15, rac-3-{4-[5-(2-Diethylamino-6-methyl-pyridin-4-yl)-[1,2,4]oxadiazol-3-yl]-2-ethyl-6-methyl-phenoxy}-propane-1,2-diol] |
| 1.2 nM | CCc1cc(-c2nc(-c3cc(C)c(OCC(O)CNC(=O)CO)c(CC)c3)no2)cc(N(C)C)n1 (racemic) [Example 32, rac-N-(3-{4-[5-(2-Dimethylamino-6-ethyl-pyridin-4-yl)-[1,2,4]oxadiazol-3-yl]-2-ethyl-6-methyl-phenoxy}-2-hydroxy-propyl)-2-hydroxy-acetamide] |
| 1.4 nM | CCc1cc(-c2nc(-c3cc(C)nc(N(CC)CC)c3)no2)cc(C)c1OC[C@H](O)CNC(=O)CO [Example 79, N—((R)-3-{4-[3-(2-diethylamino-6-methyl-pyridin-4-yl)-[1,2,4]oxadiazol-5-yl]-2-ethyl-6-methyl-phenoxy}-2-hydroxy-propyl)-2-hydroxy-acetamide] |
| 3.4 nM | CCc1cc(-c2nnc(-c3cc(C)nc(N(CC)CC)c3)o2)cc(C)c1OC[C@@H](O)CNC(=O)CO [Example 87, N—((S)-3-{4-[5-(2-diethylamino-6-methyl-pyridin-4-yl)-[1,3,4]oxadiazol-2-yl]-2-ethyl-6-methyl-phenoxy}-2-hydroxy-propyl)-2-hydroxy-acetamide] |
| 0.5 nM | CCN(CC)c1cc(-c2nc(-c3cc(C)c(OC[C@@H](O)CNC(=O)CO)c(Cl)c3)no2)cc(C)n1 [Example 109, N—((S)-3-{2-chloro-4-[5-(2-diethylamino-6-methyl-pyridin-4-yl)-[1,2,4]oxadiazol-3-yl]-6-methyl-phenoxy}-2-hydroxy-propyl)-2-hydroxy-acetamide] |
| 2 nM | CCN(CC)c1cc(-c2nc(-c3cc(Cl)c(OC[C@H](O)CNC(=O)CO)c(OC)c3)no2)cc(C)n1 [Example 116, N—((R)-3-{2-chloro-4-[5-(2-diethylamino-6-methyl-pyridin-4-yl)-[1,2,4]oxadiazol-3-yl]-6-methoxy-phenoxy}-2-hydroxy-propyl)-2-hydroxy-acetamide] |
| 0.1 nM | CCc1cc(-c2noc(-c3cc(C)nc(N(C)C(C)C)c3)n2)cc(C)c1OC[C@@H](O)CNC(=O)CO [Example 130, N—[(S)-3-(2-ethyl-4-{5-[2-(isopropyl-methyl-amino)-6-methyl-pyridin-4-yl]-[1,2,4]oxadiazol-3-yl}-6-methyl-phenoxy)-2-hydroxy-propyl]-2-hydroxy-acetamide] |
| 0.2 nM | CCc1cc(-c2nc(-c3cc(C)c(OC[C@@H](O)CNC(=O)CO)c(CC)c3)no2)cc(N(C)C)n1 [Example 192, N—((S)-3-{4-[5-(2-dimethylamino-6-ethyl-pyridin-4-yl)-[1,2,4]oxadiazol-3-yl]-2-ethyl-6-methyl-phenoxy}-2-hydroxy-propyl)-2-hydroxy-acetamide] |
| 4.1 nM | CCc1cc(-c2noc(-c3cc(C)nc(N(C)CC(C)C)c3)n2)cc(C)c1OC[C@@H](O)CNC(=O)CO [Example 232, N—[(S)-3-(2-ethyl-4-{5-[2-(isobutyl-methyl-amino)-6-methyl-pyridin-4-yl]-[1,2,4]oxadiazol-3-yl}-6-methyl-phenoxy)-2-hydroxy-propyl]-2-hydroxy-acetamide] |

Same assay, conditions: agonistic activity; 35S-GTPγS binding, membranes of CHO cells expressing recombinant human S1P1 receptor

| EC50 | SMILES |
| --- | --- |
| > 10000 nM | CCc1cc(-c2noc(-c3cc(C)nc(N(C)CC(C)C)c3)n2)cc(C)c1OCC(O)CO (racemic) [Example 34, rac-3-(2-Ethyl-4-{5-[2-(isobutyl-methyl-amino)-6-methyl-pyridin-4-yl]-[1,2,4]oxadiazol-3-yl}-6-methyl-phenoxy)-propane-1,2-diol] |
| > 10000 nM | CCc1cc(-c2nnc(-c3cc(C)nc(N(CC)CC)c3)s2)cc(C)c1OC[C@@H](O)CO [Example 90] |
| > 10000 nM | CCc1cc(-c2nnc(-c3cc(C)nc(N(C)C(C)C)c3)s2)cc(C)c1OC[C@H](O)CO [Example 176] |
| > 10000 nM | CCc1cc(-c2nnc(-c3cc(C)nc(N(C)C(C)C)c3)s2)cc(C)c1OC[C@H](O)CN [Example 178] |
| > 10000 nM | CCc1cc(-c2nnc(-c3cc(C)nc(N(C)C(C)C)c3)s2)cc(C)c1OC[C@@H](O)CN [Example 179] |
| > 10000 nM | CCc1cc(-c2noc(-c3cc(C)nc(N4CCOCC4)c3)n2)cc(C)c1OC[C@H](O)CN [Example 208] |
| > 10000 nM | CCc1cc(-c2noc(-c3cc(C)nc(N4CCOCC4)c3)n2)cc(C)c1OC[C@@H](O)CN [Example 209] |
